Experimental data reported in patent publication US7618971B2, “Mitotic kinesin inhibitors” (Merck & Co. Inc., priority 2004, dated 2009).

Assay: Activity of the resolved enantiomers of 1-5 (test not stated)
Conditions: enantiomers resolved on Chiralpak AD; first and second peak to elute

| Structure (SMILES) | activity of the enantiomer (active / inactive) |
| --- | --- |
| CC(=O)N1N=C(c2cc(F)ccc2F)C[C@@]1(CCCO)c1ccccc1 (single isomer, unassigned; isomer 3) [(S) isomer] | active |
| CC(=O)N1N=C(c2cc(F)ccc2F)C[C@]1(CCCO)c1ccccc1 [(R) isomer] | inactive |
